From patent US9440930B2, “Substituted bicyclic dihydropyrimidinones and their use as inhibitors of neutrophil elastase activity” (Boehringer Ingelheim International GmbH, priority 2014, dated 2016)
Values after ≈ are worked out from the molar mass of the structure shown.

Assays:
[1] = target: T1, Human neutrophil elastase (Homo sapiens, UniProt P08246); experiment: Human Neutrophil Elastase Assay; type: biochemical; conditions: substrate MeOSuc-Ala-Ala-Pro-Val-AMC 250 μM, pH 7.5, room temperature
T1 construct: purchased Calbiochem 324681
T1 sequence (P08246 30-247 limits assumed): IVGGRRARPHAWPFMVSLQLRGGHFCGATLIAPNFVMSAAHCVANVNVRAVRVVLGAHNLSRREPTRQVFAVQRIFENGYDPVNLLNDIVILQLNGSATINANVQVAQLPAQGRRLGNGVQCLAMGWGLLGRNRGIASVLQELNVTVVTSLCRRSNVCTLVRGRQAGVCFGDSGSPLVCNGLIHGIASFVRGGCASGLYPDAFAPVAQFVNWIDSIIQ
From the text: Human Neutrophil Elastase Assay

human hepatocytes = experiment: Metabolic stability with human hepatocytes; type: in vitro ADME; conditions: human hepatocyte suspension, 1 μM compound, well stirred model
Procedure: Assay for the Determination of Metabolic Stability with Human Hepatocytes
The metabolic degradation of the test compound is assayed in a human hepatocyte suspension. Human hepatocytes (typically cryopreserved) are incubated in an appropriate buffer system (e.g. Dulbecco's modified eagle medium plus 3.5 μg glucagon/500 mL, 2.5 mg insulin/500 mL and 3.75 mg/500 mL hydrocortison) containing 5% species serum. Following a (typically) 30 min preincubation in an incubator (37° C., 10% CO2), 5 μl of test compound solution (80 μM; from 2 min stock solution in DMSO diluted 1:25 with medium) are added into 395 μl hepatocyte suspension (cell density in the range 0.25-5*10^6 cells/mL, typically 1*10^6 cells/mL; final concentration of test compound 1 μM, final DMSO concentration 0.05%). The cells are incubated for six hours (incubator, orbital shaker) and samples (25 μl) are taken at 0, 0.5, 1, 2, 4 and 6 hours. Samples are transferred into acetonitrile and pelleted by centrifugation (5 min). The supernatant is transferred to a new 96-deepwell plate, evaporated under nitrogen and resuspended. The decline of parent compound is analyzed by LC-MS/MS. […]

hERG potassium channel = hERG potassium channel (Homo sapiens, UniProt Q12809); experiment: hERG inhibition; type: cell-based; conditions: human; at 10 μM
[2] = target: hERG (human ether-a-go-go-related gene) potassium channel (Homo sapiens, UniProt Q12809); experiment: hERG inhibition; type: cell-based
Aqueous solubility = type: physicochemical; conditions: McIlvaine buffer pH 6.8 containing 2.5% DMSO, kinetic from dmso stock, McIlvaine buffer pH 6.8, 2.5% DMSO, 24 h shaking
Procedure: Assay for Determination of Aqueous Solubility
Starting from a 10 min DMSO stock solution, aliquots are diluted with acetonitrile/water (1/1) and McIlvaine buffer pH 6.8, respectively. After 24 h of shaking, the solutions or suspensions are filtered and analyzed by LC-UV. The amount dissolved in buffer is compared to the amount dissolved in the acetonitrile/water (1/1) solution. Solubility is measured from 0.001 to 0.125 mg/ml at a DMSO concentration of 2.5%. If more than 90% of the compound is dissolved in buffer, the value is marked with “>”.

cytochrome P450 2C9 = target: T2, cytochrome P450 2C9 (Homo sapiens, UniProt P11712); experiment: Cytochrome P450 2C9 inhibition; type: in vitro ADME; conditions: human liver microsomes, Diclofenac hydroxylation
T2 construct: is assayed at 37° C. with human liver microsomes; from tissue; host or cells: human liver microsomes
From the text: Assay for Determination of Cytochrome P450 2C9 Inhibition

cytochrome P450 2C19 = target: T3, cytochrome P450 2C19 (Homo sapiens, UniProt P33261); experiment: Cytochrome P450 2C19 inhibition; type: in vitro ADME; conditions: human liver microsomes, (S)-Mephenytoin hydroxylation
T3 construct: is assayed at 37° C. with human liver microsomes; from tissue; host or cells: human liver microsomes
From the text: Assay for Determination of Cytochrome P450 2C19 Inhibition

cytochrome P450 2C8 = target: T4, cytochrome P450 2C8 (Homo sapiens, UniProt P10632); experiment: Cytochrome P450 2C8 inhibition; type: in vitro ADME; conditions: human liver microsomes, Amodiaquine deethylation
T4 construct: is assayed at 37° C. with human liver microsomes; from tissue; host or cells: human liver microsomes
T4 sequence (P10632 1-490): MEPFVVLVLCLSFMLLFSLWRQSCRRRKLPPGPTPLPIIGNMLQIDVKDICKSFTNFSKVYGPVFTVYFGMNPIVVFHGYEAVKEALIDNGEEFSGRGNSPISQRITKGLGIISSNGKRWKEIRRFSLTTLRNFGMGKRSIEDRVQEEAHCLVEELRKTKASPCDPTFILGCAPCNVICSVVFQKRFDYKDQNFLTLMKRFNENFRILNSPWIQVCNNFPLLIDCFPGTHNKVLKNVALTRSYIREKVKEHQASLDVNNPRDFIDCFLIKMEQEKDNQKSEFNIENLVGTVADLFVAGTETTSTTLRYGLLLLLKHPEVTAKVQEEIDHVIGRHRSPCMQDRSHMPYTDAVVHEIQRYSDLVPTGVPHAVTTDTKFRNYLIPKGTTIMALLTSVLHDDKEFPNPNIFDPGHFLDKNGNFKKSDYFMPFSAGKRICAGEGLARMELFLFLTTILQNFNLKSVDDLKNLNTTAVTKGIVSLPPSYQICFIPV
From the text: Assay for Determination of Cytochrome P450 2C8 Inhibition

T2 sequence (P11712 whole entry): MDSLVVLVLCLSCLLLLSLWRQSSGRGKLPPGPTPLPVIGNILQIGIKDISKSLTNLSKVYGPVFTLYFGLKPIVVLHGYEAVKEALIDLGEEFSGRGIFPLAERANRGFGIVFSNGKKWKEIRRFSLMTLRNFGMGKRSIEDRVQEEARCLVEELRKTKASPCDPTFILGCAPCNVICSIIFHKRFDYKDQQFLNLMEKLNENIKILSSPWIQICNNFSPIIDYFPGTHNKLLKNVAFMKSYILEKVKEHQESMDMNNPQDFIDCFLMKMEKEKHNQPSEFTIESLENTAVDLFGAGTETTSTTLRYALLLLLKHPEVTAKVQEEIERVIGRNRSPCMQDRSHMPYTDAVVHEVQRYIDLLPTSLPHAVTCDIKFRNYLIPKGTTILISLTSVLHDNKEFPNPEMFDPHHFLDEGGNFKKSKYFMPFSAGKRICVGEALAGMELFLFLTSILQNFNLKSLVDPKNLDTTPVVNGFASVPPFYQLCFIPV
T3 sequence (P33261 whole entry): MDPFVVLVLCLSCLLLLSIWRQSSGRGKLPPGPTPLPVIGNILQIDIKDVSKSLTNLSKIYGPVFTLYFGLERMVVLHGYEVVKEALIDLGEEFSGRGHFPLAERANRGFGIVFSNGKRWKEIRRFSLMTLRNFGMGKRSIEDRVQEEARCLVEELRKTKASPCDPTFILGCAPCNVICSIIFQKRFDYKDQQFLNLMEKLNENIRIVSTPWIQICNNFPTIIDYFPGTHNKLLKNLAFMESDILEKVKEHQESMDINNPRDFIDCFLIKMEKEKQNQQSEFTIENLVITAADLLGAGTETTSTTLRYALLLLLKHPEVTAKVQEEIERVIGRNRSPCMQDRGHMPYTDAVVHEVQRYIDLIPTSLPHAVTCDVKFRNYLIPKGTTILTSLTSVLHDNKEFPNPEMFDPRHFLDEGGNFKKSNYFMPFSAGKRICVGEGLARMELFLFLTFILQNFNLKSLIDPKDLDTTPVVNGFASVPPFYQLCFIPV
Sequence of hERG (human ether-a-go-go-related gene) potassium channel (Q12809 whole entry): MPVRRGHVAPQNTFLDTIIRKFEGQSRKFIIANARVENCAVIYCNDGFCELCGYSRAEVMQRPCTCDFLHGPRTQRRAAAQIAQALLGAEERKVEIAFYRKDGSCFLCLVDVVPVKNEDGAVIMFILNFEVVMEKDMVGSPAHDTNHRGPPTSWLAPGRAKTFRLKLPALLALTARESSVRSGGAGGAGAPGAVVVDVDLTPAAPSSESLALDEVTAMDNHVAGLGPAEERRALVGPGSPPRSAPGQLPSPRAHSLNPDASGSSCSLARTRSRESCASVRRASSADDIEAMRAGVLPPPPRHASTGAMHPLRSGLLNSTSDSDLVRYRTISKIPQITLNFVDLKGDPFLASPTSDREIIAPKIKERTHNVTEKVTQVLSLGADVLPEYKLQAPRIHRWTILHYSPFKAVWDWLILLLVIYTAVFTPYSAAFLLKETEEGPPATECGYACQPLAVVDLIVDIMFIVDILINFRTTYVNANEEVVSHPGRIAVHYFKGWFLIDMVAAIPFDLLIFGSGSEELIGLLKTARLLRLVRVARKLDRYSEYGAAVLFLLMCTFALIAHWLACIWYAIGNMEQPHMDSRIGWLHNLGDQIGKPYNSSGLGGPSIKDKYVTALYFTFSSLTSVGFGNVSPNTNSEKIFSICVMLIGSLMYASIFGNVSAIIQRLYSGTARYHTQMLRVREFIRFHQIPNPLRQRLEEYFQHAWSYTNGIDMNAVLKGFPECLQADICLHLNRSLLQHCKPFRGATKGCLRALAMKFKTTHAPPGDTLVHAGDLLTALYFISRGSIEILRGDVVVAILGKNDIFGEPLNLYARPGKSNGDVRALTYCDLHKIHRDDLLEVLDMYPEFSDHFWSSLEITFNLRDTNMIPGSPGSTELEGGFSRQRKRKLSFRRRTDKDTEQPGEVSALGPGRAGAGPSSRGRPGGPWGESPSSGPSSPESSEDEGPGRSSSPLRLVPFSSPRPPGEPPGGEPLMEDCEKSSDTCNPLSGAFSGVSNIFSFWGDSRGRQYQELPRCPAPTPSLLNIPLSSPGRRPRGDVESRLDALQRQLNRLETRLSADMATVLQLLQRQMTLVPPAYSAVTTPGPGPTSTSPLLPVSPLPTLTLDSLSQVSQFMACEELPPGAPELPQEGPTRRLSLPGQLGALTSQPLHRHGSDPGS
Sequence of hERG potassium channel (Q12809 whole entry): as above

IC50 [1]: < 0.001 µM | predicted hepatic in vivo blood clearance (human hepatocytes): 5 % human hepatic blood flow | solubility at 24 h (Aqueous solubility): 55 µg/mL (≈ 113 µM) | IC50 (cytochrome P450 2C9): > 50 µM | IC50 (cytochrome P450 2C19): > 50 µM | IC50 (cytochrome P450 2C8): > 50 µM
Structure (SMILES): CN1C(=O)N(c2cccc(C(F)(F)F)c2)C2=C(C(=O)CCC2)[C@H]1c1ccc(C#N)cc1[S+](C)[O-] (single isomer, unassigned) [Example 2.2A, 3-Methanesulfinyl-4-[3-methyl-2,5-dioxo-1-(3-trifluoromethyl-phenyl)-1,2,3,4,5,6,7,8-octahydro-quinazolin-4-yl]-benzonitrile]
inhibition at 10 µM (hERG potassium channel): 9% | IC50 [2]: > 30 µM
